Experimental data published in patent US7288562B2, “Fluoro and sulphonylamino containing 3,6-disubstituted azabicyclo (3.1.0) hexane derivatives as muscarinic receptor antagonists” (priority 2002, dated 2007).
Where two headings read alike, the source gives them in different places.

Experiments:
M2 muscarinic receptor = target: T1, M2 muscarinic receptor (Rattus norvegicus, UniProt P10980); assay: Radioligand binding assay, [3H]-N-methylscopolamine, rat heart membranes; details: [3H]-NMS
T1 construct: from tissue; host or cells: rat heart membrane homogenate
T1 sequence (P10980 1-466): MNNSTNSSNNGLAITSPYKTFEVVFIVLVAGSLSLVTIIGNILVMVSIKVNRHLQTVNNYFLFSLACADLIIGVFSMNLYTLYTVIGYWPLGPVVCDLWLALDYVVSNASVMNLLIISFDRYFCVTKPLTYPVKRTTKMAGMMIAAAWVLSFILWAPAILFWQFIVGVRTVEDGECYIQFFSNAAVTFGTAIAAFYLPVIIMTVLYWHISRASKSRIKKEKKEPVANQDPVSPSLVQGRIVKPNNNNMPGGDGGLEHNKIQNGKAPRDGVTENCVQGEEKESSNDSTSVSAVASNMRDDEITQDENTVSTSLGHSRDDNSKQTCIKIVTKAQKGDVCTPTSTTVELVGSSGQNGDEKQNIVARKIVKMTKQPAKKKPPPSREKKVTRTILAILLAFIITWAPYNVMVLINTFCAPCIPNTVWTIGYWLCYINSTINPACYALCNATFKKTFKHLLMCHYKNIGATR
Description: (§1) The affinity of test compounds for M2 and M3 muscarinic receptor subtypes was determined by [^3H]-N-methylscopolamine binding studies using rat heart and submandibular gland respectively as described by Moriya et al., (Life Sci, 1999, 64(25):2351-2358) with minor modifications.
(§2) Membrane preparation: Submandibular glands and heart were isolated and placed in ice cold homogenising buffer (HEPES 20 mM, 10 mM EDTA, pH 7.4) immediately after sacrifice. The tissues were homogenised in 10 volumes of homogenising buffer and the homogenate was filtered through two layers of wet gauze and filtrate was centrifuged at 500 g for 10 min. The supernatant was subsequently centrifuged at 40,000 g for 20 min. The pellet thus obtained was resuspended in same volume of assay buffer (HEPES 20 mM, EDTA 5 mM, pH 7.4) and were stored at −70° C. until the time of assay.
(§3) Ligand binding assay: The compounds were dissolved and diluted in DMSO. The membrane homogenates (150-250 μg protein) were incubated in 250 μl of assay buffer (HEPES 20 mM, pH 7.4) at 24-25° C. for 3 h. Non-specific binding was determined in the presence of 1 μM atropine. The incubation was terminated by vacuum filtration over GF/B fiber filters(Wallac). The filters were then washed with ice cold 50 mM Tris HCl buffer (pH 7.4). The filter mats were dried and bound radioactivity retained on filters was counted. The IC50 & Kd were estimated by using the non-linear curve fitting program using G Pad Prism software. The value of inhibition constant Ki was calculated from competitive binding studies by using Cheng & Prusoff equation (Biochem Pharmacol, 1973, 22: 3099-3108), Ki=IC50/(1+L/Kd), where L is the concentration of
(§4) [^3H]NMS used in the particular experiment.

M3 muscarinic receptor = target: T2, M3 muscarinic receptor (Rattus norvegicus, UniProt P08483); assay: Radioligand binding assay, [3H]-N-methylscopolamine, rat submandibular gland membranes; details: [3H]-NMS
T2 construct: from tissue; host or cells: rat submandibular gland membrane homogenate
T2 sequence (P08483 whole entry): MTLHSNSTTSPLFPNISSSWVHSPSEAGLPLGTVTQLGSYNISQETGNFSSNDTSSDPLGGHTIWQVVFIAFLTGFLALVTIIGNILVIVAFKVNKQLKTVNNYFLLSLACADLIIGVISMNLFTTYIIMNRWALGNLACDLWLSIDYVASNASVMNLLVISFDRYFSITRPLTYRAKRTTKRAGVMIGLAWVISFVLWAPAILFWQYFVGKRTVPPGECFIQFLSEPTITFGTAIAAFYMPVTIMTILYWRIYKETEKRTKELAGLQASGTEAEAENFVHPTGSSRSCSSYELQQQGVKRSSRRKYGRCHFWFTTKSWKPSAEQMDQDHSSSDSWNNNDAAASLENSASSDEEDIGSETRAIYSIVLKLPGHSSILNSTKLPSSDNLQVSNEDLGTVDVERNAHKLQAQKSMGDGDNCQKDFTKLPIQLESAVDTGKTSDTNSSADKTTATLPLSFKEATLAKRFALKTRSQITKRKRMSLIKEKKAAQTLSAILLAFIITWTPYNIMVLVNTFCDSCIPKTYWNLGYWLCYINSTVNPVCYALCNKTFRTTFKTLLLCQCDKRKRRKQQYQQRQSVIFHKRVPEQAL
Description: as §1, §2, §3, §4

isolated rat bladder = assay: Functional experiments using isolated rat bladder (carbachol-induced contraction); details: isolated rat bladder strips, carbachol concentration response curve
Description: Functional Experiments Using Isolated Rat Bladder:
Animals were euthanized by overdose of urethane and whole bladder was isolated and removed rapidly and placed in ice cold Tyrode buffer with the following composition (mMol/L) NaCl 137; KCl 2.7; CaCl2 1.8; MgCl2 0.1; NaHCO3 11.9; NaH2PO4 0.4; Glucose 5.55 and continuously gassed with 95% O2 and 5% CO2.
The bladder was cut into longitudinal strips (3 mm wide and 5-6 mm long) and mounted in 10 ml organ baths at 30° C., with one end connected to the base of the tissue holder and the other end connected to a polygraph through a force displacement transducer. Each tissue was maintained at a constant basal tension of 2 g and allowed to equilibrate for 1 hour during which the PSS was changed every 15 min. At the end of equilibration period the stabilization of the tissue contractile response was assessed with 1 μmol/L of Carbachol consecutively for 2-3 times. Subsequently a cumulative concentration response curve to carbachol (10^−9 mol/L to 3×10^−5 mol/L) was obtained. After several washes, once the baseline was achieved, cumulative concentration response curve was obtained in presence of NCE (NCE added 20 min. prior to the second CRC).
The contractile results were expressed as % of control E max. ED50 values were calculated by fitting a non-linear regression curve (Graph Pad Prism). pKB values were calculated by the formula pKB=−log [(molar concentration of antagonist/(dose ratio-1))]
• dose ratio=ED50 in the presence of antagonist/ED50 in the absence of antagonist.

[1] = read-out: Receptor Binding Assay M2 pKi (converted)
[2] = read-out: Receptor Binding Assay M3 pKi (converted)

For `O=C(NCC1C2CN(Cc3ccccc3)CC12)C(O)(c1ccccc1)C1CCC(F)(F)C1` (mixture of isomers) [Compound No. 3, (2Ror 2S)-(1α,5α,6α)-N-[3-benzyl-3-azabicyclo[3.1.0]hexyl-6-(aminomethyl)-yl]-2-[(1R or 1S)-3,3-difluorocyclopentyl]-2-hydroxy-2-phenyl acetamide], the Ki (M2 muscarinic receptor; [1]) was 251 nM, the Ki (M3 muscarinic receptor; [2]) was 6.31 nM and the “Functional Assay pKB” value (isolated rat bladder) was 8.55 ± 0.25.
For `O=C(NC[C@@H]1[C@H]2CN(Cc3ccccc3)C[C@@H]12)[C@](O)(c1ccccc1)C1CCC(F)(F)C1` (single isomer, unassigned) [Compound No. 1A, (2R)-(1α,5α,6α)-N-[3-benzyl-3-azabicyclo[3.1.0]hexyl-6-(aminomethyl)-yl]-2-[(1R or 1S)-3,3-difluorocyclopentyl]-2-hydroxy-2-phenylacetamide], the Ki (M2 muscarinic receptor; [1]) was 135 nM, the Ki (M3 muscarinic receptor; [2]) was 5.62 nM and the “Functional Assay pKB” value (isolated rat bladder) was 9.1 ± 0.2.
In the case of `O=C(NC[C@@H]1[C@H]2CN(Cc3ccccc3)C[C@@H]12)[C@](O)(c1ccccc1)C1CCC(F)(F)C1` (single isomer, unassigned) [Compound No. 1B, (2R)-(1α,5α,6α)-N-[3-benzyl-3-azabicyclo[3.1.0]hexyl-6-(aminomethyl)-yl]-2-[(1R or 1S)-3,3-difluorocyclopentyl]-2-hydroxy-2-phenylacetamide], the Ki (M2 muscarinic receptor; [1]) is reported as 229 nM, the Ki (M3 muscarinic receptor; [2]) is reported as 6.17 nM and the “Functional Assay pKB” value (isolated rat bladder) is reported as 8.98 ± 0.06.
`O=C(NCC1C2CN(Cc3ccccc3)CC12)C(O)(c1ccccc1)C1CCC(F)C1` (single isomer, unassigned) [Compound No. 4, (2R or 2S)-(1α,5α,6α)-N-[3-benzyl-3-azabicyclo[3.1.0]hexyl-6-(aminomethyl)-yl]-2-[(1R or 1S, 3R or 3S)-3-fluorocyclopentyl]-2-hydroxy-2-phenyl acetamide] was tested, and the Ki (M2 muscarinic receptor; [1]) was 138 nM, the Ki (M3 muscarinic receptor; [2]) was 5.89 nM and the “Functional Assay pKB” value (isolated rat bladder) was 8.33 ± 0.15.
For `O=C(NCC1C2CN(Cc3ccccc3)CC12)C(O)(c1ccccc1)C1CCC(NS(=O)(=O)c2ccc([N+](=O)[O-])cc2)C1` (single isomer, unassigned) [Compound No. 6, (2R)-(1α,5α,6α)-N-[3-benzyl-3-azabicyclo[3.1.0]hexyl-6-(aminomethyl)-yl]-2-[(1R or 1S, 3R or 3S)-3-(4-nitrophenyl)sulphonylaminocyclopentyl]-2-hydroxy-2-phenylacetamide], the Ki (M2 muscarinic receptor; Receptor Binding Assay M2 pKi) was > 1580 nM, the Ki (M3 muscarinic receptor; Receptor Binding Assay M3 pKi) was 21.9 nM and the “Functional Assay pKB” value (isolated rat bladder) was 7.21 ± 0.20.
In the case of `O=C(COCc1ccccc1)NC1CCC(C(O)(C(=O)NCC2C3CN(Cc4ccccc4)CC23)c2ccccc2)C1` (single isomer, unassigned) [Compound No. 8, (2R)-(1α,5α,6α)-N-[3-benzyl-3-azabicyclo[3.1.0]hexyl-6-(aminomethyl)-yl]-2-[(1R or 1S, 3R or 3S)-3-benzyloxyacetylaminocyclopentyl]-2-hydroxy-2-phenylacetamide], the Ki (M2 muscarinic receptor; [1]) is reported as 209 nM, the Ki (M3 muscarinic receptor; [2]) is reported as 34.7 nM and the “Functional Assay pKB” value (isolated rat bladder) is reported as 7.08 ± 0.18.
`O=C(NC[C@@H]1[C@H]2CN(Cc3ccccc3)C[C@@H]12)[C@](O)(c1ccccc1)C1CCC(F)C1` (stereo partly drawn) [Compound No. 2, (2R(1α,5α,6α)-N-[3-benzyl-3-azabicyclo[3.1.0]hexyl-6-(aminomethyl)-yl]-2-[(1R or 1S, 3R or 3S)-3-fluorocyclopentyl]-2-hydroxy-2-phenylacetamide] was tested, and the Ki (M2 muscarinic receptor; [1]) was 126 nM, the Ki (M3 muscarinic receptor; [2]) was 3.98 nM and the “Functional Assay pKB” value (isolated rat bladder) was 8.84 ± 0.07.
With `O=C(Cc1ccccc1)NC1CCC([C@](O)(C(=O)NC[C@@H]2[C@H]3CN(Cc4ccccc4)C[C@@H]23)c2ccccc2)C1` (stereo partly drawn) [Compound No. 5, (2R)-(1α,5α,6α)-N-[3-benzyl-3-azabicyclo[3.1.0]hexyl-6-(aminomethyl)-yl]-2-[(1R or 1S, 3R or 3S)-3-phenylacetylaminocyclopentyl]-2-hydroxy-2-phenylacetamide] the Ki (M2 muscarinic receptor; [1]) was 832 nM, the Ki (M3 muscarinic receptor; [2]) was 39.8 nM and the “Functional Assay pKB” value (isolated rat bladder) was 7.07 ± 0.11.
In the case of `O=C(NC[C@@H]1[C@H]2CN(Cc3ccccc3)C[C@@H]12)[C@](O)(c1ccccc1)C1CCC(NS(=O)(=O)c2ccccc2)C1` (stereo partly drawn) [Compound No. 7, (2R)-(1α,5α,6α)-N-[3-benzyl-3-azabicyclo[3.1.0]hexyl-6-(aminomethyl)-yl]-2-[(1R or 1S, 3R or 3S)-3-phenylsulphonylaminocyclopentyl]-2-hydroxy-2-phenylacetamide], the Ki (M2 muscarinic receptor; Receptor Binding Assay M2 pKi) is reported as > 1580 nM, the Ki (M3 muscarinic receptor; Receptor Binding Assay M3 pKi) is reported as 50.1 nM and the “Functional Assay pKB” value (isolated rat bladder) is reported as 6.89 ± 0.29.
For `COc1ccc(S(=O)(=O)NC2CCC([C@](O)(C(=O)NC[C@@H]3[C@H]4CN(Cc5ccccc5)C[C@@H]34)c3ccccc3)C2)cc1` (stereo partly drawn) [Compound No. 9, (2R)-(1α,5α,6α)-N-[3-benzyl-3-azabicyclo[3.1.0]hexyl-6-(aminomethyl)-yl]-2-[(1R or 1S, 3R or 3S)-3-(4-methoxyphenyl)sulphonylaminocyclopentyl]-2-hydroxy-2-phenylacetamide], the Ki (M2 muscarinic receptor; Receptor Binding Assay M2 pKi) was > 1000 nM and the Ki (M3 muscarinic receptor; Receptor Binding Assay M3 pKi) was 204 nM.
`O=C(NC[C@@H]1[C@H]2CN(Cc3ccccc3)C[C@@H]12)[C@](O)(c1ccccc1)C1CCC(NS(=O)(=O)c2ccc(Br)cc2)C1` (stereo partly drawn) [Compound No. 10, (2R)-(1α,5α,6α)-N-[3-benzyl-3-azabicyclo[3.1.0]hexyl-6-(aminomethyl)-yl]-2-[(1R or 1S, 3R or 3S)-3-(4-bromophenyl)sulphonylaminocyclopentyl]-2-hydroxy-2-phenylacetamide] was tested, and the Ki (M2 muscarinic receptor; Receptor Binding Assay M2 pKi) was > 1000 nM and the Ki (M3 muscarinic receptor; Receptor Binding Assay M3 pKi) was 129 nM.
